The Kd is a measure of binding affinity in units of concentration.

Calls of active or inactive are those of the source. How the calls were made is not given here.

Sequence of Peptidyl-prolyl cis-trans isomerase FKBP1A (Homo sapiens) (P62942 whole entry, looked up): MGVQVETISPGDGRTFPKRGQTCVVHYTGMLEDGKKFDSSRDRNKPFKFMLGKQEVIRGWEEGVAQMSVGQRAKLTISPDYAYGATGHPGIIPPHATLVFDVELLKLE

This assay has as its target Peptidyl-prolyl cis-trans isomerase FKBP1A (Homo sapiens) (UniProt P62942). Put plainly: small-molecule binding to FKBP12 – biophysical, NMR detection (AID 608). The note with it: purified FKBP12.
Consider `CC(=O)Nc1ccc(N(C)C(C)=O)cc1`, for which the Kd is > 4 mM (inactive).
With `CCOC(=O)C(C)c1n[nH]c(=O)c2ccccc12` (stereo unspecified), the Kd was > 4 mM (inactive).
Next, `O=S(=O)(O)c1nc2ccccc2[nH]1`: > 4 mM (inactive).
`COc1c2occc2c(OC)c2c(=O)cc(C)oc12`: the Kd was > 4 mM (inactive).
`Cc1c(N=CN(C)C)c(=O)n(-c2ccccc2)n1C`: the Kd was > 4 mM (inactive).
Next, `Cc1noc(C)c1C(=O)Nc1sc(C)c(C)c1C#N`: > 4 mM (inactive); `COC(=O)[C@@H]1OC(=O)C2OC23[C@@]1(C)CCC1[C@]2(C)C(C[C@H](O)[C@]13C)C(C)(C)[C@H](OC(C)=O)C[C@@H]2OC(C)=O` (stereo partly specified): > 4 mM (inactive); `Cc1ccc(C)n1/N=C1\NC(=O)CS1`: > 4 mM (inactive).
For `Cn1c(=O)c2[nH]cnc2n(-c2ccccc2)c1=O`, the Kd is > 4 mM (inactive).
Take `Cn1nnc2cc(C(=O)NC3=NCCS3)ccc21`: the Kd was > 4 mM (inactive).
Next, `c1ccc(CSc2ncccn2)cc1`: > 4 mM (inactive); `CC1SC(=NC(=O)c2ccco2)NC1=O` (stereo unspecified): > 4 mM (inactive).
Next, `O=[N+]([O-])c1cccc(-c2nnco2)c1`: > 4 mM (inactive); `CCOC(=O)Cc1cc(=O)n2[nH]c(C)cc2n1`: > 4 mM (inactive); `CC(CCC(=O)O)[C@H]1CCC2C3C(C[C@H](O)[C@@]21C)[C@@]1(C)CC[C@@H](O)C[C@H]1C[C@H]3O` (stereo partly specified): > 4 mM (inactive).
Consider `Nc1c2c3c(sc2nc(=O)n1N)CCCC3`, for which the Kd was > 4 mM (inactive).
Turning to `Nc1ccnc(C(=O)O)c1`, the Kd is > 4 mM (inactive).
Next, `N#Cc1cnc(N2CCCCC2)nc1N`: > 4 mM (inactive).
On to `NCCNC(=S)Nc1ccccc1`, for which the Kd was > 4 mM (inactive).
Next, `NC(=O)C1CCN(C(=O)c2ccccc2F)CC1`: > 4 mM (inactive); `O=C(c1cnsn1)N1CCN(c2ccccc2)CC1`: > 4 mM (inactive); `O=C(O)c1coc2c1C(=O)CCC2`: > 4 mM (inactive).
`O=C1CSC(=Nc2ccccc2[N+](=O)[O-])N1`: the Kd is > 4 mM (inactive).
Next, `CC(=O)c1cccc(NS(=O)(=O)N(C)C)c1`: > 4 mM (inactive).
As for `CN1CCC(N2CCOCC2)CC1`, the Kd was > 4 mM (inactive).
For the compound `CC(=O)c1cc(CN2C(=O)c3ccccc3C2=O)cs1`, the Kd is > 4 mM (inactive).
Next, `Cc1nc(-c2cccc(N)c2)cs1`: > 4 mM (inactive).
On to `COC(=O)C(O)c1ccccc1` (stereo unspecified), for which the Kd was > 4 mM (inactive).
Next, `O=C(NN1CCOCC1)c1ccccc1F`: > 4 mM (inactive); `CC(C)=CC(=O)Nc1ccc2c(c1)OCO2`: > 4 mM (inactive).
In the case of `CNC(=S)N1CCN(C(=O)c2ccco2)CC1`, the Kd is > 4 mM (inactive).
As to `CN1CCCCC1c1ccc(-c2cccnc2)nc1` (stereo unspecified), the Kd is > 4 mM (inactive).
For `NCc1ccc2sccc2c1`, the Kd is > 4 mM (inactive).
Next, `O=C(NCc1cccnc1)c1ccccn1`: > 4 mM (inactive).
Next, `COc1ccc(/C=C2/SC(N)=NC2=O)c(OC)c1`: > 4 mM (inactive); `CC(=O)OC1CC[C@@]2(C)C(CCC3C2CC[C@]2(C)C(C4=CC(=O)OC4)C(OC(C)=O)CC32O)C1` (stereo partly specified): > 4 mM (inactive); `O=C1NC(=S)N/C1=C/c1ccsc1`: > 4 mM (inactive).
Turning to `Cc1cc(=O)n2ncn(Cc3ccccc3)c2n1`, the Kd was > 4 mM (inactive).
Next, `CC(C)c1ccc(NC(=O)C(N)=O)cc1`: > 4 mM (inactive); `Cc1nc2sccn2c1C(=O)O`: > 4 mM (inactive); `O=C(O)c1cccnc1N1CCOCC1`: > 4 mM (inactive).
Next, `Cc1cc(C(=O)NCc2cccnc2)cs1`: > 4 mM (inactive).
Turning to `NCc1ccc2occc2c1`, the Kd was > 4 mM (inactive).
Next, `CSc1ccccc1NC(=O)c1cnccn1`: > 4 mM (inactive); `Cc1ccc(-c2nn(C)c(=O)c3ccccc23)cc1CO`: > 4 mM (inactive); `O=[n+]1c(CO)c(CO)n([O-])c2ccccc21`: > 4 mM (inactive).
With `Cc1ccc2c(C)c(C(=O)Nc3nnc(C)s3)oc2c1`, the Kd was > 4 mM (inactive).
Next, `CN1CCN(C(=O)/C=C\C(=O)O)CC1`: > 4 mM (inactive).
Next, `COc1cc(-c2coc3cc(OC)c(OC)c(OC)c3c2=O)cc(OC)c1OC`: > 4 mM (inactive); `O=C1Nc2ccc(S(=O)(=O)NCCO)c3cccc1c23`: > 4 mM (inactive); `O=C1CSC(=Nc2ccc(F)cc2)N1`: > 4 mM (inactive).
Next, `CC1C[C@H]2CC(=O)[C@H]3CCCN4CCC[C@H]2[C@]34C1` (stereo partly specified): > 4 mM (inactive).
Take `CC(C)c1ccc(SCC(=O)N2CCOCC2C(=O)O)cc1` (stereo unspecified): the Kd is 0.426 mM.
For the compound `Cc1ccc(S(=O)(=O)CC(=O)N2CCOCC2)cc1`, the Kd is 0.095 mM.
On to `O=C(NCCCSc1ncccn1)Nc1ncccn1`, for which the Kd was > 4 mM (inactive).
On to `O=S(=O)(c1cccc(Cl)c1)N1CCCC1`, for which the Kd is > 4 mM (inactive).
With `CC12CCC(O)CC1CCC1C2[C@H](O)CC2(C)C(C3=CC(=O)OC3)CCC12O` (stereo partly specified), the Kd is > 4 mM (inactive).
Next, `C/C1=C/CC(C)(C)/C=C/C/C(C)=C/CC1`: > 4 mM (inactive); `NC(=O)CN=Cc1c(O)[nH]c2ccccc12`: > 4 mM (inactive); `O=c1[nH]cc(CN2CCOCC2)c(=O)[nH]1`: > 4 mM (inactive).
Next, `NC(=O)CS(=O)(=O)c1ccc2ccccc2c1`: > 4 mM (inactive); `Nc1nc2[nH]c(=O)c(=O)[nH]c2c(=O)[nH]1`: > 4 mM (inactive); `COC(=O)CSc1n[nH]c(N)n1`: > 4 mM (inactive).
Take `COCC(=O)OCn1nnc2ccccc2c1=O`: the Kd is > 4 mM (inactive).
Next, `O=C(Nc1nncs1)C1(c2ccccc2)CCCC1`: > 4 mM (inactive).
Next, `Cn1c(O)c(C=NCC2CCNCC2)c(=O)n(C)c1=O`: > 4 mM (inactive); `O=C1Cn2c(nc3ccccc32)N1c1ccccc1F`: > 4 mM (inactive).
Next, `CC(=O)O[C@H]1C[C@@H](OC(C)=O)C(C)(C)C2C[C@@H](OC(C)=O)[C@]3(C)C(CC[C@@]4(C)[C@H](c5ccoc5)OC(=O)[C@H]5O[C@]543)[C@]21C` (stereo partly specified): > 4 mM (inactive); `C=CCCCCCCCCCCCC(O)CC(O)COC(C)=O` (stereo unspecified): > 4 mM (inactive); `Clc1ccc(-n2ccnc2)nn1`: > 4 mM (inactive).
For `CCOC(=O)c1sc(SC)c2c1CCCC2O` (stereo unspecified), the Kd is > 4 mM (inactive).
Next, `Cc1ccc(S(=O)(=O)CC(=O)N(C)C)cc1`: > 4 mM (inactive).
In the case of `CC(=O)Oc1ccc2c(c1C(C)C)CCC1C(C)(C)CCC[C@]21C` (stereo partly specified), the Kd was > 4 mM (inactive).
Next, `Nc1c(C(=O)O)sc2ncccc12`: > 4 mM (inactive); `Cc1noc(-c2ccccc2)c1CO`: > 4 mM (inactive).
Next, `O=C(O)CCn1cncn1`: > 4 mM (inactive); `Cn1cnnc1SCCCNC(=O)Nc1ncccn1`: > 4 mM (inactive); `CC(C)=CC1C(C(=O)O)C1(C)C` (stereo unspecified): > 4 mM (inactive).
Next, `COC(=O)C1CSCC1=O` (stereo unspecified): > 4 mM (inactive).
Consider `OCn1nnn(-c2ccccc2)c1=S`, for which the Kd was > 4 mM (inactive).
Next, `Cc1ccc(S(=O)(=O)CC(=O)N2CCCC2)cc1`: > 4 mM (inactive); `Cc1cc(C(=O)NCc2ccco2)cs1`: > 4 mM (inactive); `COCCn1cnc2cc(C)c(C)cc21`: > 4 mM (inactive).
As to `Cc1cc(C(=O)Nc2sc3c(c2C#N)CCC3)no1`, the Kd is > 4 mM (inactive).
Next, `CC(=O)Nn1c(=O)[nH]c2ccccc2c1=O`: > 4 mM (inactive); `CC(=O)Nc1ccc(NC(=O)c2ccncc2)cc1`: > 4 mM (inactive); `O=C(Nc1cnccn1)c1cccc(C(F)(F)F)c1`: > 4 mM (inactive).
For the compound `C=CC(C1=CC(=O)C(OC)=CC1=O)c1ccc(O)cc1` (stereo unspecified), the Kd is > 4 mM (inactive).
Next, `C[C@@H]1OC(O[C@H]2C(O[C@H]3CC[C@@]4(C)C(CC[C@]5(C)C4CC=C4C6CC(C)(C)CC[C@]6(C(=O)O)CC[C@]45C)[C@]3(C)CO)OC[C@H](O)[C@@H]2O)[C@H](O)[C@H](O)[C@H]1O` (stereo partly specified): > 4 mM (inactive).
For `NC(=O)c1ccsc1NC(=O)c1cccnc1`, the Kd is > 4 mM (inactive).
Next, `CC(=O)O[C@H]1C[C@@H](OC(C)=O)C(C)(C)C2C[C@@H](OC(C)=O)[C@@]3(C)C4=CC(=O)O[C@@H](c5ccoc5)[C@]4(C)CCC3[C@]21C` (stereo partly specified): > 4 mM (inactive); `C=CCn1c(-c2ccc(O)cc2)n[nH]c1=S`: > 4 mM (inactive).
For the compound `Cc1nn(-c2ccccc2)nc1C(=O)O`, the Kd was > 4 mM (inactive).
Next, `CN1CCC=C(C(=O)O)C1`: > 4 mM (inactive).
As to `CC1=C(/C=C/C(C)=C/C=C/C(C)=C/CO)C(C)(C)CCC1`, the Kd is > 4 mM (inactive).
Next, `CC(=O)Oc1cc(OC(C)=O)c2c(c1)O[C@H](c1ccc(OC(C)=O)c(OC(C)=O)c1)[C@H](OC(C)=O)C2`: > 4 mM (inactive).
Next, `CN1CCC(NC(=O)c2ccccc2[N+](=O)[O-])CC1`: > 4 mM (inactive).
As for `COc1cc(OC)cc(-c2nc(N)n[nH]2)c1`, the Kd is > 4 mM (inactive).
Next, `NC(=O)CC1NC(=O)c2ccccc21` (stereo unspecified): > 4 mM (inactive); `CCCCCC1C(=O)CCC1CC(=O)OC` (stereo unspecified): > 4 mM (inactive).
Next, `CC[C@@]1(O)C[C@H](O[C@H]2C[C@H](N(C)C)[C@H](O)[C@H](C)O2)c2c(cc3c(c2O)C(=O)c2c(O)cccc2C3=O)[C@H]1C(=O)OC`: > 4 mM (inactive).
